Columns and labels:
Test in all cases: kinase panel
Assay type in all cases: biochemical
IR(h) = IR(h) (Homo sapiens, UniProt P06213)
In short: (§1)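 Three compounds in the series were profiled against a panel of 231 kinases, and activity is reported as % inhibition. For one compound, a subset of 98 kinases was selected on the basis of its structural similarity to another series member.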

JAK2(h) = JAK2(h) (Homo sapiens, UniProt O60674)
In short: as §1

CDK2/cyclinA(h) = CDK2/cyclinA(h) (Homo sapiens, UniProt P24941)
In short: as §1

TrkB(h) = TrkB(h) (Homo sapiens, UniProt Q16620)
In short: as §1

CaMKIIγ(h) = CaMKIIγ(h) (Homo sapiens, UniProt Q13555)
In short: as §1

MINK(h) = MINK(h) (Homo sapiens, UniProt Q8N4C8)
In short: as §1

Fms(h) = Fms(h) (Homo sapiens, UniProt P07333)
In short: as §1

PDGFRβ(h) = PDGFRβ(h) (Homo sapiens, UniProt P09619)
In short: as §1

PDK1(h) = molecular target: T1, PDK1(h) (Homo sapiens, UniProt O15530)
T1 sequence (O15530 1-556): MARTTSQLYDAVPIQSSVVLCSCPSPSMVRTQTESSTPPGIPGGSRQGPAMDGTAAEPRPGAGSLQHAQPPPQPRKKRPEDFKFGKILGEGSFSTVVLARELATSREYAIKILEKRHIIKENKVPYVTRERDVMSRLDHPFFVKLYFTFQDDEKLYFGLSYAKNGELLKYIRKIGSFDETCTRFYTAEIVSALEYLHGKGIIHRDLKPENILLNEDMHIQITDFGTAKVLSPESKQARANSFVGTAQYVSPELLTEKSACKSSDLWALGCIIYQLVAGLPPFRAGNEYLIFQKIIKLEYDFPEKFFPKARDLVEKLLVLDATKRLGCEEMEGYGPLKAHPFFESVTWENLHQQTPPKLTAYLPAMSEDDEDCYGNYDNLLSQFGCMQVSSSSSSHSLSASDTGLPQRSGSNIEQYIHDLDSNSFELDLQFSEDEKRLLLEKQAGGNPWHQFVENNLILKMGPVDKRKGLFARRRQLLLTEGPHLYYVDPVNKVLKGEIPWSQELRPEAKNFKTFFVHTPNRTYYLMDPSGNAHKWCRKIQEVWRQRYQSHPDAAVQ
In short: as §1

EGFR(h) = EGFR(h) (Homo sapiens, UniProt P00533)
In short: as §1

Pim-1(h) = Pim-1(h) (Homo sapiens, UniProt P11309)
In short: as §1

Arg(h) = Arg(h) (Homo sapiens, UniProt P42684)
In short: as §1

Abl(h) = Abl(h) (Homo sapiens, UniProt P00519)
In short: as §1

PAK2(h) = PAK2(h) (Homo sapiens, UniProt Q13177)
In short: as §1

AMPKα1(h) = AMPKα1(h) (Homo sapiens, UniProt Q13131)
In short: as §1

Flt4(h) = Flt4(h) (Homo sapiens, UniProt P35916)
In short: as §1

FGFR1(h) = FGFR1(h) (Homo sapiens, UniProt P11362)
In short: as §1

ALK(h) = ALK(h) (Homo sapiens, UniProt Q9UM73)
In short: as §1

GSK3α(h) = GSK3α(h) (Homo sapiens, UniProt P49840)
In short: as §1

CaMKIIβ(h) = CaMKIIβ(h) (Homo sapiens, UniProt Q13554)
In short: as §1

Ret(h) = Ret(h) (Homo sapiens, UniProt P07949)
In short: as §1

CaMKI(h) = CaMKI(h) (Homo sapiens, UniProt Q14012)
In short: as §1

ROCK-II(h) = ROCK-II(h) (Homo sapiens, UniProt O75116)
In short: as §1

MST2(h) = molecular target: T2, MST2(h) (Homo sapiens, UniProt Q13188)
T2 sequence (Q13188 1-491): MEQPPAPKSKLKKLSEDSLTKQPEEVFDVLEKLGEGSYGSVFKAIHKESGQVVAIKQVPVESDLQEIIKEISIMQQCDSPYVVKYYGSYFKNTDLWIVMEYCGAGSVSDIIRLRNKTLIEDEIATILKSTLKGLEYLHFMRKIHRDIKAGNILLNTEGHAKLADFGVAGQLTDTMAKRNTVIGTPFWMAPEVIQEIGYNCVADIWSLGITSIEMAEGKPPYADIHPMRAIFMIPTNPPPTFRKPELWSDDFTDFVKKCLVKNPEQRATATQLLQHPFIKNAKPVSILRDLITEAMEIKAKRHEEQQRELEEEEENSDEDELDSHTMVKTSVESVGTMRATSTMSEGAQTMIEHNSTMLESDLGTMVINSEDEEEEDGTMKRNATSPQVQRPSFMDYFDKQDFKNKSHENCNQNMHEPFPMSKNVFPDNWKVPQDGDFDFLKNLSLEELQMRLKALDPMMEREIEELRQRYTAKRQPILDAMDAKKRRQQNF
In short: as §1

PKBα(h) = PKBα(h) (Homo sapiens, UniProt P31749)
In short: as §1

ACK1(h) = ACK1(h) (Homo sapiens, UniProt Q07912)
In short: as §1

TrkA(h) = TrkA(h) (Homo sapiens, UniProt P04629)
In short: as §1

PRK2(h) = PRK2(h) (Homo sapiens, UniProt Q16513)
In short: as §1

Chain of PAK2(h) (Q13177 whole entry): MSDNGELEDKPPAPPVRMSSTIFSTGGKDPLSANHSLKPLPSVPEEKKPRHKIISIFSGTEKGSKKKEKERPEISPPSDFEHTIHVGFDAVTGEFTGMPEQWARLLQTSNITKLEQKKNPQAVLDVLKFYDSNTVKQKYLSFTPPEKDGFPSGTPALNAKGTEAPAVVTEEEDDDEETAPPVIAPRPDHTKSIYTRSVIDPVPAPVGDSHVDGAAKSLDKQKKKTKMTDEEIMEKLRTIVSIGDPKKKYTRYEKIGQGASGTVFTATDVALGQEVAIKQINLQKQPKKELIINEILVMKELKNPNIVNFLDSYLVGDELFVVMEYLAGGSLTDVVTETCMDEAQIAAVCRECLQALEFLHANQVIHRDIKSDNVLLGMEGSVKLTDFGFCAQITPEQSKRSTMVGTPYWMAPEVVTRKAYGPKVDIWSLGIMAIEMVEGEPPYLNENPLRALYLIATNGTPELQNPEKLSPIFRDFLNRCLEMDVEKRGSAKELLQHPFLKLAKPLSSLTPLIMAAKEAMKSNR
Chain of FGFR1(h) (P11362 22-822): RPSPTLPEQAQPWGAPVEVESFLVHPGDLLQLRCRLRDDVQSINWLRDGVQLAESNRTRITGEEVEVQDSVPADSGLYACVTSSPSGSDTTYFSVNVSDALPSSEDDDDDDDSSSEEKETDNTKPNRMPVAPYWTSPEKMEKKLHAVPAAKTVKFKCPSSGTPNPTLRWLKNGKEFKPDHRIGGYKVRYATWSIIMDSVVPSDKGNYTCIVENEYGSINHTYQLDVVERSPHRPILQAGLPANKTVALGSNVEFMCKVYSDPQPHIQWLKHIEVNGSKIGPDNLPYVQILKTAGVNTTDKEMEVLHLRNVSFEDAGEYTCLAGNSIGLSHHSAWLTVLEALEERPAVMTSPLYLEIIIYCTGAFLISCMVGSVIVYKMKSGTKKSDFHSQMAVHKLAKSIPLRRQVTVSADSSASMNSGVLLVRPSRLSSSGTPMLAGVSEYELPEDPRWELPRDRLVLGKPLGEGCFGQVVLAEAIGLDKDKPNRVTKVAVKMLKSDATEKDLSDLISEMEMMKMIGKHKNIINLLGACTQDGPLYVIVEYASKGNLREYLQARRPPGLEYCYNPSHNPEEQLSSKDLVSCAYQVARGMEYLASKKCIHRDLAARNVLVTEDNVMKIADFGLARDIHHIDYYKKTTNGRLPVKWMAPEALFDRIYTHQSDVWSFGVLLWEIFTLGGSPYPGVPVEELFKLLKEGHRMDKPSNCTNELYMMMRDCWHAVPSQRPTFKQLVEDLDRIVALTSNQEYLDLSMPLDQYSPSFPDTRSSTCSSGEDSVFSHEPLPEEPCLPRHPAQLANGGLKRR
Chain of CaMKIIγ(h) (Q13555 whole entry): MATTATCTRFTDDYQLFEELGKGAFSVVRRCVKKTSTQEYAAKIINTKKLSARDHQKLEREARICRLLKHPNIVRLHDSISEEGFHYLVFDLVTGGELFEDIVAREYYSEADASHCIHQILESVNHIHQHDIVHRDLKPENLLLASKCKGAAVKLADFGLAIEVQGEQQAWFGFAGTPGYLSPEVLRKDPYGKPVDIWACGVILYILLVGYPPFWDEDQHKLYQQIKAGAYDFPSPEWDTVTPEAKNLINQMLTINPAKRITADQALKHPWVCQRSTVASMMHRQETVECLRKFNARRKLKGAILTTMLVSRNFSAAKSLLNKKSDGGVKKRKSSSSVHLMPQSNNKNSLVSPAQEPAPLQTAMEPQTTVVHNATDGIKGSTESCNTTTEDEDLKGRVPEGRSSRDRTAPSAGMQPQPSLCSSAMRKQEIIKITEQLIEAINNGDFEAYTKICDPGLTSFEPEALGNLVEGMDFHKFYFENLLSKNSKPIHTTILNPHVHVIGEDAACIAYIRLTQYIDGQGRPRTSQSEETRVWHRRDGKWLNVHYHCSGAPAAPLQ
Chain of ROCK-II(h) (O75116 whole entry): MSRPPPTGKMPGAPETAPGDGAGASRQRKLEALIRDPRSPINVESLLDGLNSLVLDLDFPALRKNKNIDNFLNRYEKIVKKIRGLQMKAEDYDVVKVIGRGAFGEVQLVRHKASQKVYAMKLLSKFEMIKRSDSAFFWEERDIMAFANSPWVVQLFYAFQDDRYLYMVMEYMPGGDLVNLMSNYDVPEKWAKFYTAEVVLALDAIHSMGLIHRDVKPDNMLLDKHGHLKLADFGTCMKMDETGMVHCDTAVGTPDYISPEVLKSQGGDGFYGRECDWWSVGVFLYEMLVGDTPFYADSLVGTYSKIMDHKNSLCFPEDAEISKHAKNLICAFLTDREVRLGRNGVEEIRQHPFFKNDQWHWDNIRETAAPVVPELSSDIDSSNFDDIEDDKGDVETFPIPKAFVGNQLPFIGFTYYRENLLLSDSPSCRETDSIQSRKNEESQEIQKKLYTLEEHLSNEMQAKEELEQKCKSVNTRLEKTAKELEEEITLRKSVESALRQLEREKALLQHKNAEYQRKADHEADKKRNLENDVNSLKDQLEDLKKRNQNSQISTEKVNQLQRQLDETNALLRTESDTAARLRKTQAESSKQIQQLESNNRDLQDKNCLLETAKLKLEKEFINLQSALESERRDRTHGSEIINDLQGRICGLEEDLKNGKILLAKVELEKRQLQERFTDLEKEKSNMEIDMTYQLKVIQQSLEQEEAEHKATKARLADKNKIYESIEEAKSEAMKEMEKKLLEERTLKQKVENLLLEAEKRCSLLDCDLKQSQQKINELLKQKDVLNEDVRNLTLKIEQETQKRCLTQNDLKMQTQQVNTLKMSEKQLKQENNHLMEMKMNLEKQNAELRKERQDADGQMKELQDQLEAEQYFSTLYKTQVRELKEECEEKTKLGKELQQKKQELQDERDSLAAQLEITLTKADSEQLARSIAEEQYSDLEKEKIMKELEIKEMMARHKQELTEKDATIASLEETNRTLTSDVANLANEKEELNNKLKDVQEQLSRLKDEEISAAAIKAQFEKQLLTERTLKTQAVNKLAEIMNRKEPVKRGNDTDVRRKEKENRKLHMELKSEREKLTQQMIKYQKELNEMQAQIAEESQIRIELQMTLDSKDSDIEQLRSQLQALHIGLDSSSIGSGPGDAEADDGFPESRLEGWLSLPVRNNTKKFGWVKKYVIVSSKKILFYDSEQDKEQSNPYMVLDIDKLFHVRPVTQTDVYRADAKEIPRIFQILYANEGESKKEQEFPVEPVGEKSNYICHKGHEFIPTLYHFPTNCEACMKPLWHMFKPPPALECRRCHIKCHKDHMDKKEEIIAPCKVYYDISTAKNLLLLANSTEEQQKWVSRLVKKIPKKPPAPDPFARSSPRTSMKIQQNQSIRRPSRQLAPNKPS
Chain of Pim-1(h) (P11309 whole entry): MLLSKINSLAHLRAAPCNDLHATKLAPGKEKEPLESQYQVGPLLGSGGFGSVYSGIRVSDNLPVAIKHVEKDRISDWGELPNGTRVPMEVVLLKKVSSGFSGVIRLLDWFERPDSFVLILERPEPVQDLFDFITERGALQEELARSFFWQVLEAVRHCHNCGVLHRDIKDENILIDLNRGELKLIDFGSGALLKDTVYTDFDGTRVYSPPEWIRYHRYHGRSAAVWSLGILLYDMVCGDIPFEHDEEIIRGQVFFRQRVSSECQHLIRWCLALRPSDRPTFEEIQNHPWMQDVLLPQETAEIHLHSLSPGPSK
Chain of Abl(h) (P00519 whole entry): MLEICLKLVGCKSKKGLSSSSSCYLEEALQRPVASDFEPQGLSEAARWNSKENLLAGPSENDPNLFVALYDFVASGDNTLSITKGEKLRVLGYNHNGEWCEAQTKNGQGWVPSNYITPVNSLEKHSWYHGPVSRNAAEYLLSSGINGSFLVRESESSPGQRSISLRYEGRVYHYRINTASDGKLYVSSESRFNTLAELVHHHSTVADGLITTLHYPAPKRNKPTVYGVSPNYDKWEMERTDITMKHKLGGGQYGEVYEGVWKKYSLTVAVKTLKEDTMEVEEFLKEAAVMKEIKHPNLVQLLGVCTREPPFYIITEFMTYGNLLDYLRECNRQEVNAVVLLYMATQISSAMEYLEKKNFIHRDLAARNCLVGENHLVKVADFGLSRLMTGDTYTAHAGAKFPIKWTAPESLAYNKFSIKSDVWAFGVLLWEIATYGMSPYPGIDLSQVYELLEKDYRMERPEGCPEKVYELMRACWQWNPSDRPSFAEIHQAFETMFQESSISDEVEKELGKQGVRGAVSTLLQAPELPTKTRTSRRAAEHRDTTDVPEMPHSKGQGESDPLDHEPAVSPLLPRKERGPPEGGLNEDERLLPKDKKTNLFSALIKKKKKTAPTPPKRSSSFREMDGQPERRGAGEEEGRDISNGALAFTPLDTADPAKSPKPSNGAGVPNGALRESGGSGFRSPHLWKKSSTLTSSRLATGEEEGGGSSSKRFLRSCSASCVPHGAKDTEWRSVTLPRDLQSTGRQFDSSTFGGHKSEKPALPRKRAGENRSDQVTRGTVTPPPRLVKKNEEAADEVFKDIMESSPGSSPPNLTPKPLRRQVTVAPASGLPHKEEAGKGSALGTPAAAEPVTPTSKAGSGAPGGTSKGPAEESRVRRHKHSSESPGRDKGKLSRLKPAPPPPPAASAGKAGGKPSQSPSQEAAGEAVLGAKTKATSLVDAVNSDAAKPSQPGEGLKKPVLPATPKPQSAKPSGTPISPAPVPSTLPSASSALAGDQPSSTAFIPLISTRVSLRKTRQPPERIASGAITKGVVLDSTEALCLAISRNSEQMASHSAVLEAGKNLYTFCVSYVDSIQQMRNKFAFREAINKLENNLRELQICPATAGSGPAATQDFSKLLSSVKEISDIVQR

SMILES | inhibition at 1 µM (IR(h)) [%] | inhibition at 1 µM (JAK2(h)) [%] | inhibition at 1 µM (CDK2/cyclinA(h)) [%] | inhibition at 1 µM (TrkB(h)) [%] | inhibition at 1 µM (CaMKIIγ(h)) [%] | inhibition at 1 µM (MINK(h)) [%] | inhibition at 1 µM (Fms(h)) [%] | inhibition at 1 µM (PDGFRβ(h)) [%] | inhibition at 1 µM (PDK1(h)) [%] | inhibition at 1 µM (EGFR(h)) [%] | inhibition at 1 µM (Pim-1(h)) [%] | inhibition at 1 µM (Arg(h)) [%] | inhibition at 1 µM (Abl(h)) [%] | inhibition at 1 µM (PAK2(h)) [%] | inhibition at 1 µM (AMPKα1(h)) [%] | inhibition at 1 µM (Flt4(h)) [%] | inhibition at 1 µM (FGFR1(h)) [%] | inhibition at 1 µM (ALK(h)) [%] | inhibition at 1 µM (GSK3α(h)) [%] | inhibition at 1 µM (CaMKIIβ(h)) [%] | further results
Nc1n[nH]c2ccc(-c3ccnc4[nH]c(-c5ccnc(OCc6ccccc6)c5)cc34)cc12 [Compound 6g [SU1349]] | -1 | 35 | 37 | -34 | 46 | 41 | 10 | -14 | 18 | -8 | 8 | 24 | 15 | 0 | -5 | 43 | -4 | 5 | 27 | 12 | inhibition at 1 µM (Ret(h)): -3%; inhibition at 1 µM (CaMKI(h)): 1%; inhibition at 1 µM (ROCK-II(h)): 25%; inhibition at 1 µM (MST2(h)): 4%; inhibition at 1 µM (PKBα(h)): 4%; inhibition at 1 µM (ACK1(h)): 17%; inhibition at 1 µM (TrkA(h)): -11%; inhibition at 1 µM (PRK2(h)): 19%
Nc1n[nH]c2ccc(-c3ccnc4[nH]c(-c5cccc(OCc6ccccc6)c5)cc34)cc12 [Compound 5r [SU1261]] | 4 | 73 | 61 | -37 | 84 | 51 | 58 | 1 | 7 | 5 | -1 | 76 | 44 | 1 | -7 | 63 | 64 | 27 | 74 | 47 | inhibition at 1 µM (Ret(h)): 41%; inhibition at 1 µM (CaMKI(h)): -6%; inhibition at 1 µM (ROCK-II(h)): 58%; inhibition at 1 µM (MST2(h)): -1%; inhibition at 1 µM (PKBα(h)): 10%; inhibition at 1 µM (ACK1(h)): 41%; inhibition at 1 µM (TrkA(h)): 29%; inhibition at 1 µM (PRK2(h)): 56%
Nc1n[nH]c2ccc(-c3ccnc4[nH]c(-c5ccccc5)cc34)cc12 [Compound 4] | 50 | 88 | 99 | 65 | 93 | 92 | 91 | 14 | 25 | 13 | 23 | 96 | 86 | 18 | 23 | 97 | 84 | 56 | 95 | 74 | inhibition at 1 µM (Ret(h)): 52%; inhibition at 1 µM (CaMKI(h)): 9%; inhibition at 1 µM (ROCK-II(h)): 89%; inhibition at 1 µM (MST2(h)): 5%; inhibition at 1 µM (PKBα(h)): 8%; inhibition at 1 µM (ACK1(h)): 83%; inhibition at 1 µM (TrkA(h)): 71%; inhibition at 1 µM (PRK2(h)): 85%

Source: article PMC11314561, “Design and Synthesis of Novel Aminoindazole-pyrrolo[2,3-b]pyridine Inhibitors of IKKα That Selectively Perturb Cellular Non-Canonical NF-κB Signalling” (Molecules, 2024)
